Patent US20160367578A1, “METHODS AND COMPOSITIONS FOR ERADICATING LEUKEMIC CELLS” (priority 2013, published 2016)
“Also recorded” adds a separate entry of the source. Where two headings read alike, the source gives them in different places.

Legend:
MLL-AF9 leukemia = MLL-AF9 leukemia in non-irradiated mice, intraperitoneal CBX with or w/o chemotherapy (survival, IVIS, flow cytometry); format: in vivo, mouse
Experimental: Chemo: cytarabine (100 mg/kg) and doxorubicin (3 mg/kg) to the subject for a period of 3 days, followed by administering cytarabine alone (100 mg/kg) to the subject for a period of 2 days.
Leukemia was induced in mice by intravenously injecting 1 million live MLL-AF9 leukemic cells (expressing GFP and luciferase) into non-irradiated recipients.
We first studied the immediate response of AML cells to induction chemotherapy in a mouse model of human MLL-AF9 leukemia. MLL-AF9 is a fusion protein, encoded by the t(9; 11)(p22; q23) translocation (Krivtsov, et al. 2006 and Sykes, et al., Cell 146, 697-708 (2011)), present in leukemic blasts derived from patients with AML and is associated with poor prognosis (Schoch, et al., Blood 102, 2395-402 (2003)). In order to generate primary MLL-AF9 leukemic cells for our experiments, we introduced the MLL-AF9 oncogene via retroviral transduction into lineage depleted bone marrow cells from B6.SJL mice, as depicted in FIG. 1A. Sorted GFP positive cells were then intravenously injected into sub-lethally irradiated C57B16 recipients and MLL-AF9 GFP-positive leukemic cells were harvested 3 months later, at a terminal stage of disease. In order to synchronize the timing of the treatment and to visualize disease progression, we transduced primary MLL-AF9 GFP-positive cells with Luciferase lentivirus. Then, we selected Luciferase expressing cells with antibiotics and transplanted 1 million double positive leukemic cells into non-irradiated recipients and monitored disease progression by whole body bioluminescence imaging (FIGS. 1A and 1B).
1 week after treatment, mice were imaged and then sacrificed to evaluate treatment outcome.

MLL-AF9 leukemic cells = assay: Apoptosis of MLL-AF9 leukemic cells (7AAD-negative, annexin-V positive); format: cell-based, mouse; design: apoptosis of leukemic cells, kinetics: dose or concentration left out as unconfirmed
Experimental: Rate of proliferation for cell populations used is as follows: MLL-AF9: 3 divisions/24 hours; myeloblasts: 3 divisions/24 hours, eLKS: 7 divisions/24 hours.
The informational material can include instructions to administer the gap junction blocker and/or agents described herein in a suitable manner, e.g., in a suitable dose, dosage form, or mode of administration. […] The informational material can include instructions for selecting a suitable subject, e.g., a human, e.g., a human suffering from relapsed or refractory acute myeloid leukemia. The informational material of the kits is not limited in its form. In many cases, the informational material, e.g., instructions, is provided in printed matter, e.g., a printed text, drawing, and/or photograph, e.g., a label or printed sheet. However, the informational material can also be provided in other formats, such as Braille, computer readable material, video recording, or audio recording. In another embodiment, the informational material of the kit is a link or contact information, e.g., a physical address, email address, hyperlink, website, or telephone number, where a user of the kit can obtain substantive information about the modulator and/or its use in the methods described herein. Of course, the informational material can also be provided in any combination of formats.

[1] = tested on: MLL-AF9 cells (murine leukemic cancer stem cells); assay: Colony formation assay (CFU-C) on MLL-AF9 cells; format: cell-based, mouse
human AML cell line U937 = assay: Neutrophil differentiation (CD66b+/CD14-) by FACS in U937; format: cell-based; settings: U937, 16 hours
[2] = tested on: primary bone marrow leukocytes or primary peripheral blood leukocytes; assay: Viability of normal primary leukocytes exposed to CBX, alone or in 1:1 mixtures (7AAD FACS); format: cell-based, mouse; design: sensitivity of wild type primary leukocytes from BM or PB: dose or concentration left out as unconfirmed; settings: for effect on normal counterparts in 1:1 mixtures with different AML cells: MLL-AF9 clone A/B or HoxA9/Meis1 mixtures
Experimental: Cells were distinguished by Cd45.1/CD45.2 expression and cell viability was determined by % of 7AAD-negative cells, in FACS analysis.
(§1) We then asked how blockage of gap junction intercellular communication affects AML cells, without additional treatment. […] In order to exclude the possibility of clone specific effects, we have repeated the experiments with a different MLL-AF9 clone, generated independently, and also included HoxA9/Meis1 AML cells that represent a different type of AML.

[3] = tested on: murine AML cells (MLL-AF9 clone A, MLL-AF9 clone B, HoxA9/Meis1 cells); assay: Viability of murine AML cells in 1:1 mixtures with normal leukocytes exposed to CBX for 16 hours; format: cell-based, mouse
Experimental: Cells were distinguished by Cd45.1/CD45.2 expression and cell viability was determined by % of 7AAD-negative cells, in FACS analysis. (*p<0.01).
Cells were distinguished by CD45.1/CD45.2 expression and cell viability was determined by % of 7AAD-negative cells, in FACS analysis (*p<0.01).
as §1

CC1(C)[C@@H](OC(=O)CCC(=O)O)CC[C@]2(C)[C@H]3C(=O)C=C4[C@@H]5C[C@@](C)(C(=O)O)CC[C@]5(C)CC[C@@]4(C)[C@]3(C)CC[C@@H]12 [CBX, Carbenoxolone]
leukemia status 1 week after treatment (luciferase imaging, flow cytometry) (MLL-AF9 leukemia; 25 mg/kg CBX 24 hours before and throughout 5-days induction chemotherapy): entirely leukemia free | survival (MLL-AF9 leukemia; Carbenoxolone 20 mg/kg in combination with chemotherapy, from Day 27): prolonged survival | survival (MLL-AF9 leukemia; Carbenoxolone alone, 20 mg/kg 3 or 6 days from Day 27, or 10/20/30 mg/kg ascending from Day 68): prolonged survival | survival (MLL-AF9 leukemia; IP, 20 mg/kg for 6 days from day 27 (with chemo arm) or 10/20/30 mg/kg ascending from day 68): prolonged survival | survival (MLL-AF9 leukemia; IP, 50 mg/kg 6 days beginning at day 27): prolonged survival | apoptosis of MLL-AF9 leukemic cells (MLL-AF9 leukemic cells; 6, 12 and 20 hours): rapidly induces apoptosis | cell cycle dependence of CBX-induced leukemia apoptosis (MLL-AF9 leukemic cells; 4 h, 1:1 mixture with highly proliferating normal myeloblasts or expanded LKS cells): not cell cycle dependent | apoptosis of leukemic cells in 1:1 mixture with BM-MNC (MLL-AF9 leukemic cells; CBX vs PBS control, 4h): induces apoptosis of leukemic cells | apoptosis of leukemic cells, kinetics (MLL-AF9 leukemic cells; exposure of about […] μM): selective apoptosis within hours | effect on malignant vs. normal immature stem and progenitor cells (CFU-C) ([1]; CBX at greater than or equal to 50 μM): differential effect | effect on murine leukemic cancer stem cells (CFU-C) ([1]; increasing concentrations of carbenoxolone): eradicates murine leukemic cancer stem cells | neutrophil differentiation (CD66b+/CD14−) (human AML cell line U937): induces rapid (within 16 hours) neutrophil differentiation | cytotoxic effects on normal cells [2]: no cytotoxic effects | effect on normal BM leukocytes in 1:1 mixture with MLL-AF9 ([2]; CBX as high as 400 μM, 16 hours): without affecting the normal cells | eradication of normal blood cells ([2]; CBX at greater than or equal to 100 μM, 16 hours): not the eradication of normal blood cells | sensitivity of wild type primary leukocytes from BM or PB ([2]; CBX even at high concentration, 16 hours): not sensitive | effect on normal counterparts in 1:1 mixtures with different AML cells ([2]; 16 hours): without affecting normal cells; also recorded: without affecting non-leukemic normal counterparts | effect on normal counterparts in 1:1 mixtures with different AML cells ([2]; 16 hours, listed as carbenoxolone): without affecting non-leukemic normal counterparts | eradication of different murine AML cells [3]: selectively eradicates | eradication of different murine AML cells ([3]; listed as Carbenoxolone): selective eradication | eradication of different murine AML cells ([3]; listed as carbenoxolone): selectively eradicates
